Experiments:
[1] = system: MT-3/ADR resistant breast carcinoma; test: Cytotoxicity, MTT assay, adriablastin resistant cell line MT-3/ADR; assay type: cell-based; settings: concentration range tested up to 100 μM
Procedure: The cells were seeded in 96-well plates with 5×10^3 cells per well, in RPMI 1640 medium with 2 mM glutamine and 10% FBS. The cells were incubated for 24 hours. The test compounds were dissolved in DMSO and further diluted in medium just prior to use. 6 wells were used per test concentration. The cells were incubated with test compound for 24 hours. 20 μl of freshly prepared MTT solution was added to each well and incubated for 4 hours.

[2] = system: Hela mutant cervix carcinoma cells; test: Cytotoxic activity with or without nucleoside transport inhibitor dipyridamole, MTT assay; assay type: cell-based; settings: dipyridamole 10 μM
Procedure: Dipyridamole was used as an inhibitor of the equilibrative nucleoside transporters hENT1 and hENT2. The cells were seeded in 96-well plates with 5×10^3 cells per well, in RPMI 1640 medium with 2 mM glutamine and 10% FBS. The cells were pre-incubated for 24 hours. Dipyridamole (10 μM) was added to the cells 30 minutes prior to the addition of the test compounds. The test compounds were dissolved in DMSO and further diluted in medium just prior to use. 6 wells were used per test concentration. The cells were incubated with test compound for 72 hours. 20 μl of freshly prepared MTT solution was added to each well and incubated for 4 hours.

## Nc1ncn([C@@H]2O[C@H](CO)[C@@H](O)[C@H]2O)c(=O)n1 [Aza-C, 5-azacytidine]
[1]
  activity in the MT-3/ADR resistant cell line: No activity was observed
[2]
  reduction of activity by addition of dipyridamole: 3 fold
